Results reported in patent EP2608671B1, “COMPOUNDS FOR TREATMENT OF CANCER” (Gtx, Inc., priority 2010, dated 2012).
Where two headings read alike, the source gives them in different places.

Tests used:
PPC-1 = experiment: cells; conditions: Homo sapiens
A375 = experiment: SRB cell growth inhibition (cytotoxicity) assay; assay type: cell-based, human
WM-164 = experiment: SRB cell growth inhibition (cytotoxicity) assay; assay type: cell-based, human; conditions: Homo sapiens
PC-3 = experiment: cells; conditions: Homo sapiens
Excerpt: (§1) The only compounds which belong to the invention are the ones falling under the scope of formula (XI).
Cells were stained with SRB solution.
Cells. […] Cells between the third and fifth passages were used for experiments.
Cell growth inhibition studies. […] Cells were stained with sulphorhodamine B (SRB) solution.

B16-F1 = experiment: SRB cell growth inhibition (cytotoxicity) assay; assay type: cell-based, mouse
Excerpt: as §1

LNCaP = experiment: cells; conditions: Homo sapiens
DU 145 = experiment: cells; conditions: Homo sapiens
[1] = PPC-1, read-out: IC50 (nM), PPC-1
[2] = Homo sapiens, A-375, read-out: IC50 (nM), A375
[3] = WM164, read-out: IC50 (nM), WM164
[4] = PC-3, read-out: IC50 (nM), PC-3
[5] = Mus musculus, B16-F1, read-out: IC50 (nM), B16-F1
[6] = DU-145, read-out: IC50 (nM), DU 145
[7] = PPC-1, 96 h, read-out: IC50 ± SEM (nM), PPC-1
[8] = Homo sapiens, A-375; A375 melanoma cells, 48 h, SRB; read-out: IC50 ± SEM (nM) A375
[9] = WM164 melanoma cells, 48 h, SRB, read-out: IC50 ± SEM (nM) WM164
[10] = PC-3, 96 h, read-out: IC50 ± SEM (nM), PC-3
[11] = Mus musculus; B16-F1 melanoma cells, 48 h, SRB; read-out: IC50 ± SEM (nM) B16-F1
[12] = 96 h, read-out: IC50 ± SEM (nM), LNCaP
[13] = DU-145, 96 h, read-out: IC50 ± SEM (nM) Du 145
[14] = PPC-1, 96 h, read-out: IC50 (nM), PPC-1
[15] = Homo sapiens, A-375; SRB, 48 h; Table 11; read-out: IC50 (nM), A375
[16] = WM164, SRB, 48 h, Tables 11, 12, read-out: IC50 (nM), WM164
[17] = PC-3, 96 h, read-out: IC50 (nM), PC-3
[18] = Mus musculus, B16-F1; SRB, 48 h; Table 11; read-out: IC50 (nM), B16-F1
[19] = 96 h, read-out: IC50 (nM), LNCaP
[20] = DU-145, 96 h, read-out: IC50 (nM), Du 145
[21] = Homo sapiens, A-375; Table 6A; read-out: IC50 (nM), A375
[22] = WM164, Table 6A, read-out: IC50 (nM), WM164
[23] = Mus musculus, B16-F1; Table 6A; read-out: IC50 (nM), B16-F1
[24] = DU-145, 96 h, read-out: IC50 ± SEM (nM), DU 145

| Compound | IC50 (PPC-1; [7]) [nM] | IC50 (A375; [8]) [nM] | IC50 (WM-164; [9]) [nM] | IC50 (PC-3; [10]) [nM] | IC50 (B16-F1; [11]) [nM] | IC50 (LNCaP; [12]) [nM] | IC50 (DU 145; [13]) [nM] | further results |
| --- | --- | --- | --- | --- | --- | --- | --- | --- |
| COc1cc(C(=O)c2cn(S(=O)(=O)c3ccccc3)c(-c3ccc4c(c3)cc(C(=O)c3cc(OC)c(OC)c(OC)c3)n4S(=O)(=O)c3ccccc3)n2)cc(OC)c1OC [16xaa, (1-(Phenylsulfonyl)-2-(1-(phenylsulfonyl)-2-(3,4,5-trimethoxybenzoyl)-1H-indol-5-yl)-1H-imidazol-4-yl)(3,4,5-trimethoxyphenyl)methanone] |  |  |  |  |  |  |  | IC50 (PPC-1; [1]): > 10000 nM; IC50 (A375; [2]): > 10000 nM; IC50 (WM-164; [3]): > 10000 nM; IC50 (PC-3; [4]): > 10000 nM; IC50 (B16-F1; [5]): > 10000 nM; IC50 (LNCaP; read-out: IC50 (nM), LNCaP): > 10000 nM; IC50 (DU 145; [6]): > 10000 nM |
| COc1ccc(-c2nc(C(=O)c3cc(OC)c(OC)c(OC)c3)cn2S(=O)(=O)c2ccccc2)cc1OC [11ha, (2-(3,4-dimethoxyphenyl)-1-(phenylsulfonyl)-1H-imidazol-4-yl)(3,4,5-trimethoxyphenyl)methanone] | 117 ± 2 | 192 ± 15 | 139 ± 15 | 197 ± 9 | 970 ± 68 | 114 ± 6 | 144 ± 29 |  |
| COc1cccc(C(=O)c2c[nH]c(-c3ccccc3)n2)c1 [12ac, (3-methoxyphenyl)(2-phenyl-1H-imidazol-4-yl)methanone] |  |  |  |  |  |  |  | IC50 (PPC-1; [14]): > 10000 nM; IC50 (A375; [15]): > 10000 nM; IC50 (WM-164; [16]): > 10000 nM; IC50 (PC-3; [17]): > 10000 nM; IC50 (B16-F1; [18]): > 10000 nM; IC50 (LNCaP; [19]): > 10000 nM; IC50 (DU 145; [20]): > 10000 nM |
| O=C(c1cc(O)c(O)c(O)c1)c1c[nH]c(-c2cc(O)c(O)c(O)c2)n1 [13ea, (3,4,5-trihydroxyphenyl)(2-(3,4,5-trihydroxyphenyl)-1H-imidazol-4-yl)methanone] | > 10000 | > 10000 | > 10000 | > 10000 | > 10000 | > 10000 | > 10000 |  |
| Cc1ccc(-c2nc(C(=O)c3ccc(F)cc3)cn2S(=O)(=O)c2ccccc2)cc1 [11db, (4-fluorophenyl)(1-(phenylsulfonyl)-2-(p-tolyl)-1H-imidazol-4-yl)methanone] | 57 ± 1 | 113 ± 14 | 107 ± 14 | 80 ± 1 | 287 ± 31 | 55 ± 3 | 80 ± 1 |  |
| O=C(c1csc(-c2cc3ccccc3[nH]2)n1)c1cc2ccccc2[nH]1 [compound 8, (2-(1H-Indol-2-yl)thiazol-4-yl)(1H-indol-2-yl)methanone] |  |  |  |  |  |  |  | IC50 (PPC-1; [1]): 230 nM; IC50 (A375; [21]): 318 nM; IC50 (WM-164; [22]): 404 nM; IC50 (PC-3; [4]): 704 nM; IC50 (B16-F1; [23]): 570 nM; IC50 (LNCaP; read-out: IC50 (nM), LNCaP): 346 nM; IC50 (DU 145; [6]): 580 nM |
| COc1cc(/C=C/c2csc(-c3ccccc3)n2)cc(OC)c1OC [3b, (E)-2-Phenyl-4-(3,4,5-trimethoxystyryl)thiazole] | > 10000 |  |  | > 10000 |  | > 10000 |  | IC50 (A375; Homo sapiens, A-375, 96 h, read-out: IC50 ± SEM (nM), A375): > 10000 nM; IC50 (WM-164; WM164, 96 h, read-out: IC50 ± SEM (nM), WM-164): 30800 ± 12000 nM; IC50 (B16-F1; Mus musculus, B16-F1, read-out: IC50 ± SEM (nM), B16-F1): 32800 ± 13000 nM; IC50 (DU 145; [24]): > 10000 nM |
| O=C(c1ccc(F)cc1)c1cn(S(=O)(=O)c2ccccc2)c(-c2ccccc2C(F)(F)F)n1 [11ib, (1-(phenylsulfonyl)-2-(2-(trifluoromethyl)phenyl)-1H-imidazol-4-yl)(4-fluorophenyl)methanone] | > 10000 | > 10000 | > 10000 | > 10000 | > 10000 | > 10000 | > 10000 |  |
| COc1ccc(S(=O)(=O)n2cc(C(=O)c3ccc(F)cc3)nc2-c2ccc(N(C)C)cc2)cc1 [12gba, (2-(4-(dimethylamino)phenyl)-1-((4-methoxyphenyl)sulfonyl)-1H-imidazol-4-yl)(4-fluorophenyl)methanone] | 63.4 | ~100 | ~100 | 44.1 | ~100 | 73.2 | 129 |  |
| CO/N=C(\c1cc(OC)c(OC)c(OC)c1)c1csc(-c2ccccc2)n1 [2f-trans, (E)-(2-Phenylthiazol-4-yl)(3,4,5-trimethoxyphenyl)methanone O-methyl oxime] | > 10000 |  |  | > 10000 |  | > 10000 |  | IC50 (A375; Homo sapiens, A-375, 96 h; read-out: IC50 ± SEM (nM), A375): > 10000 nM; IC50 (WM-164; WM164, SRB assay, 96 h, Table 2, read-out: IC50 ± SEM (nM), WM-164): > 10000 nM; IC50 (B16-F1; Mus musculus, B16-F1; read-out: IC50 ± SEM (nM), B16-F1): > 10000 nM; IC50 (DU 145; [24]): > 10000 nM |
| COc1ccc(C(=O)c2c[nH]c(-c3ccccc3)n2)cc1 [12ab, (4-methoxyphenyl)(2-phenyl-1H-imidazol-4-yl)methanone] |  |  |  |  |  |  |  | IC50 (PPC-1; [14]): > 10000 nM; IC50 (A375; [15]): > 10000 nM; IC50 (WM-164; [16]): > 10000 nM; IC50 (PC-3; [17]): > 10000 nM; IC50 (B16-F1; [18]): > 10000 nM; IC50 (LNCaP; [19]): > 10000 nM; IC50 (DU 145; [20]): > 10000 nM |
| COc1cc(C(=O)c2c[nH]c(-c3ccc(Br)cc3)n2)cc(OC)c1OC [12la, (2-(4-bromophenyl)-1H-imidazol-4-yl)(3,4,5-trimethoxyphenyl)methanone] | 33 | 32 | 36 | 36 | 74 | 34 | 49 |  |
| COc1cc(C(=O)c2cn(S(=O)(=O)c3ccccc3)c(-c3ccccc3C(F)(F)F)n2)cc(OC)c1OC [11ia, (1-(phenylsulfonyl)-2-(2-(trifluoromethyl)phenyl)-1H-imidazol-4-yl)(3,4,5-trimethoxyphenyl)methanone] | > 10000 | > 10000 | > 10000 | > 10000 | > 10000 | > 10000 | > 10000 |  |
| COc1cc(C(=O)c2c[nH]c(-c3ccc(C(F)(F)F)cc3)n2)cc(OC)c1OC [12pa, (2-(4-(trifluoromethyl)phenyl)-1H-imidazol-4-yl)(3,4,5-trimethoxyphenyl)methanone] | 110 | 163 | 175 | 127 | 469 | 134 | 174 |  |
| COc1cc(C(=NC#N)c2csc(-c3ccccc3)n2)cc(OC)c1O [compound 32, N-((4-hydroxy-3,5-dimethoxyphenyl)(2-phenylthiazol-4-yl)methylene)cyanamide] |  |  |  |  |  |  |  | IC50 (PPC-1; [1]): 1170 nM; IC50 (A375; [21]): 2700 nM; IC50 (WM-164; [22]): 2600 nM; IC50 (PC-3; [4]): 2290 nM; IC50 (B16-F1; [23]): > 10000 nM; IC50 (LNCaP; read-out: IC50 (nM), LNCaP): 1660 nM; IC50 (DU 145; [6]): 4600 nM |
| CN(C)c1ccc(-c2nc(C(=O)c3ccc(F)cc3)cn2S(=O)(=O)c2ccccc2)cc1 [11gb, (2-(4-(dimethylamino)phenyl)-1-(phenylsulfonyl)-1H-imidazol-4-yl)(4-fluorophenyl)methanone] | 48 ± 0.3 | 55 ± 7 | 56 ± 4 | 83 ± 3 | 242 ± 26 | 56 ± 6 | 74 ± 0.5 |  |
| O=C(c1ccc(F)cc1)c1cn(S(=O)(=O)c2ccccc2)c(-c2ccccc2)n1 [11af, (4-fluorophenyl)(2-phenyl-1-(phenylsulfonyl)-1H-imidazol-4-yl)methanone] | 575 | 630 ± 72 | 596 ± 61 | 2230 | 946 ± 86 | 573 | 846 |  |
| COc1cc(OC)cc(C(=O)c2c[nH]c(-c3ccccc3)n2)c1 [12ad, (3,5-dimethoxyphenyl)(2-phenyl-1 H-imidazol-4-yl)methanone] |  |  |  |  |  |  |  | IC50 (PPC-1; [14]): 2130 nM; IC50 (A375; [15]): 2800 nM; IC50 (WM-164; [16]): 2100 nM; IC50 (PC-3; [17]): 3270 nM; IC50 (B16-F1; [18]): 5400 nM; IC50 (LNCaP; [19]): 3610 nM; IC50 (DU 145; [20]): 2590 nM |
| COc1cc(C(=O)c2c[nH]c(-c3ccc4[nH]c(C(=O)c5cc(OC)c(OC)c(OC)c5)cc4c3)n2)cc(OC)c1OC [15xaa, (5-(4-(3,4,5-Trimethoxybenzoyl)-1H-imidazol-2-yl)-1H-indol-2-yl)(3,4,5-trimethoxyphenyl)methanone] |  |  |  |  |  |  |  | IC50 (PPC-1; [1]): 4580 nM; IC50 (A375; [2]): 1800 nM; IC50 (WM-164; [3]): 1700 nM; IC50 (PC-3; [4]): 2630 nM; IC50 (B16-F1; [5]): 1390 nM; IC50 (LNCaP; read-out: IC50 (nM), LNCaP): 1070 nM; IC50 (DU 145; [6]): 5920 nM |
| COc1ccc(-c2nc(C(=O)c3ccc(F)cc3)cn2C)cc1 [12cba, (4-fluorophenyl)(2-(4-methoxyphenyl)-1-methyl-1H-imidazol-4-yl)methanone] | > 10000 | > 10000 | > 10000 | > 10000 | > 10000 | > 10000 | > 10000 |  |
